# From ChEMBL document CHEMBL5465560, “Selectivity Literature for EUbOPEN Chemogenomic Library” (2024)
# Columns and labels:
# [1] = target: T1, Bone morphogenetic protein receptor type-2 (Homo sapiens) (UniProt Q13873); assay: Selectivity interaction (KinomeScan (DiscoverX)) EUB0000229b BMPR2; conditions: at 10 µM
# T1 sequence (whole entry): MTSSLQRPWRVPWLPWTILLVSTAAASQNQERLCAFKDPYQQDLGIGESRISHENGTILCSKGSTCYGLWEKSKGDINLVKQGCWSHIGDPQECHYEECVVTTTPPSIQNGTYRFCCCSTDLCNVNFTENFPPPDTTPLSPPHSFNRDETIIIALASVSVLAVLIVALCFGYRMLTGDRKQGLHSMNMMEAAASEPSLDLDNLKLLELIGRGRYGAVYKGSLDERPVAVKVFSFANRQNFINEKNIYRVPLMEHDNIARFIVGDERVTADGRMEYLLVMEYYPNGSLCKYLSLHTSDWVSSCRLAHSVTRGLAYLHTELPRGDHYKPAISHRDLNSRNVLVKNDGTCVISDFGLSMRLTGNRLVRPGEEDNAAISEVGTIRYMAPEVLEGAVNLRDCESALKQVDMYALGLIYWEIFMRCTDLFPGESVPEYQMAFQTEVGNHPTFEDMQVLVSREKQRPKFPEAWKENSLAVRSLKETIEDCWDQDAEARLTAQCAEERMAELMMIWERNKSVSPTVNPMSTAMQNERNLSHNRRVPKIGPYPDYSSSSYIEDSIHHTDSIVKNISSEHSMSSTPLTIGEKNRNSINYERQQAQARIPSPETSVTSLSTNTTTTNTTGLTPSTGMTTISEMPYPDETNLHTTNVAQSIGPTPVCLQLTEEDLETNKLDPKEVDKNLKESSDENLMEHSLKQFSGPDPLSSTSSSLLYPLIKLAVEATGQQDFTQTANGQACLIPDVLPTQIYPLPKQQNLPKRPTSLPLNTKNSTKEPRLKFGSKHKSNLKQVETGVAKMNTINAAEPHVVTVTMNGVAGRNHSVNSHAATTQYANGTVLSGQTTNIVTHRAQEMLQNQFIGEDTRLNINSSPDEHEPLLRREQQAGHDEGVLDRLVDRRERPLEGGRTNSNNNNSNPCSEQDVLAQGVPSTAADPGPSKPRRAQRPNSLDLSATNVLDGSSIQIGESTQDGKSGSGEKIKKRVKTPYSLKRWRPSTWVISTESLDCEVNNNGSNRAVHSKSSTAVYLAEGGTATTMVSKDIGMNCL
# [2] = target: Serine/threonine-protein kinase MARK1 (Homo sapiens) (UniProt Q9P0L2); conditions: at 10 µM
# [3] = target: Sodium-dependent dopamine transporter (Homo sapiens, UniProt Q01959); assay: Selectivity interaction (GPCR panel (PDSP screen)) EUB0001079a SLC6A3; conditions: at 10 µM
# [4] = target: Dual specificity mitogen-activated protein kinase kinase 1 (Homo sapiens, UniProt Q02750); assay: Selectivity interaction (Rxn Biology Kinase assay) EUB0001632a MAP2K1; conditions: at 10 µM
# [5] = target: Serine/threonine-protein kinase WNK3 (Homo sapiens) (UniProt Q9BYP7); assay: Selectivity interaction (ProQinase) EUB0000171b WNK3
# Sequence of Serine/threonine-protein kinase WNK3 (Homo sapiens) (Q9BYP7 whole entry): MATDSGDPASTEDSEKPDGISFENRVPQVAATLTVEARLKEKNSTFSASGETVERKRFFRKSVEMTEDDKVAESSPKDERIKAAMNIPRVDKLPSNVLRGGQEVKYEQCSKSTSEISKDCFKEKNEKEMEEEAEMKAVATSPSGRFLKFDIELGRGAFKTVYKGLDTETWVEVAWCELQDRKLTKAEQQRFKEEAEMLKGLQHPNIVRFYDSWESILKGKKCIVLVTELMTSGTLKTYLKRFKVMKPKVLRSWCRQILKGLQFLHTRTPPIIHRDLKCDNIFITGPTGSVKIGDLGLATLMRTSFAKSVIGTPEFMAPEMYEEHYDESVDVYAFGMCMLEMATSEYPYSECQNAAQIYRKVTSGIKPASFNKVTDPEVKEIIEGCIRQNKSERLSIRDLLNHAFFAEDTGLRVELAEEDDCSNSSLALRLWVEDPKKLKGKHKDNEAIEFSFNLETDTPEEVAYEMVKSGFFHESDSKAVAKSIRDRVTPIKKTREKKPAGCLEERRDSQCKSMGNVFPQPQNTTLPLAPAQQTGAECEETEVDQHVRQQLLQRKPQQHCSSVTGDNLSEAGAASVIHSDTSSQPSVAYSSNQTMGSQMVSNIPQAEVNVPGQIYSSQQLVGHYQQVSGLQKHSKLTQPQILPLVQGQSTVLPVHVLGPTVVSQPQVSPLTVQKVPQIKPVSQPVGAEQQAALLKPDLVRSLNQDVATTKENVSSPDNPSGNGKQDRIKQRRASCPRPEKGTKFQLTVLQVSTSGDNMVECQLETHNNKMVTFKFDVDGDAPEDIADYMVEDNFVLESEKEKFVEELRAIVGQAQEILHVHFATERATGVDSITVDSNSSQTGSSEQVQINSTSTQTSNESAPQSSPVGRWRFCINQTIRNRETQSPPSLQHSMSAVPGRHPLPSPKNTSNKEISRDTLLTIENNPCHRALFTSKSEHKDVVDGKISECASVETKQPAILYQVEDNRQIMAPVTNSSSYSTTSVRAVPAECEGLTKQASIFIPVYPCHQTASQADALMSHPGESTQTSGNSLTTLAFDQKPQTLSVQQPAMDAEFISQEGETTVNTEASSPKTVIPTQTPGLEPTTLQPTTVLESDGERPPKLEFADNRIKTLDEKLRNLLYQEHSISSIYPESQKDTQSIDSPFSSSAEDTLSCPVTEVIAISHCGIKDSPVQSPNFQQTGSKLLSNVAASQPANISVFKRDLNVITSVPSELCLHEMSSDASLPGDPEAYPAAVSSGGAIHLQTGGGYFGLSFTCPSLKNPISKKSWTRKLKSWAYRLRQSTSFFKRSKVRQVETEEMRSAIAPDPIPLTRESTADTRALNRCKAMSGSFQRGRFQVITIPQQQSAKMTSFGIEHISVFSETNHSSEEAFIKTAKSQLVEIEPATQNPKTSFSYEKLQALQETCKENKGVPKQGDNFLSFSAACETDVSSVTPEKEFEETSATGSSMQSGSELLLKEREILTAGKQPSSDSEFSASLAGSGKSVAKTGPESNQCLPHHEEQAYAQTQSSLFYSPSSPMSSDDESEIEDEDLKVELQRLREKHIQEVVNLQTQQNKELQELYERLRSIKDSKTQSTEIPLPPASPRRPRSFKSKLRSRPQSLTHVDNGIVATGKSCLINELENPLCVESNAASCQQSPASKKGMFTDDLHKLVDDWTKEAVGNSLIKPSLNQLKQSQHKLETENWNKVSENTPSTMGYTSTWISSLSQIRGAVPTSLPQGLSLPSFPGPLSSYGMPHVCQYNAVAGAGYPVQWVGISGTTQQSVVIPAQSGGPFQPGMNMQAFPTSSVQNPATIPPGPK
# [6] = target: Mitogen-activated protein kinase kinase kinase kinase 4 (Homo sapiens, UniProt O95819); assay: Selectivity interaction (SelectScreen profiling (Invitrogen)) EUB0000607a MAP4K4; conditions: at 2 µM
# Sequence of Mitogen-activated protein kinase kinase kinase kinase 4 (O95819 2-1239 limits assumed): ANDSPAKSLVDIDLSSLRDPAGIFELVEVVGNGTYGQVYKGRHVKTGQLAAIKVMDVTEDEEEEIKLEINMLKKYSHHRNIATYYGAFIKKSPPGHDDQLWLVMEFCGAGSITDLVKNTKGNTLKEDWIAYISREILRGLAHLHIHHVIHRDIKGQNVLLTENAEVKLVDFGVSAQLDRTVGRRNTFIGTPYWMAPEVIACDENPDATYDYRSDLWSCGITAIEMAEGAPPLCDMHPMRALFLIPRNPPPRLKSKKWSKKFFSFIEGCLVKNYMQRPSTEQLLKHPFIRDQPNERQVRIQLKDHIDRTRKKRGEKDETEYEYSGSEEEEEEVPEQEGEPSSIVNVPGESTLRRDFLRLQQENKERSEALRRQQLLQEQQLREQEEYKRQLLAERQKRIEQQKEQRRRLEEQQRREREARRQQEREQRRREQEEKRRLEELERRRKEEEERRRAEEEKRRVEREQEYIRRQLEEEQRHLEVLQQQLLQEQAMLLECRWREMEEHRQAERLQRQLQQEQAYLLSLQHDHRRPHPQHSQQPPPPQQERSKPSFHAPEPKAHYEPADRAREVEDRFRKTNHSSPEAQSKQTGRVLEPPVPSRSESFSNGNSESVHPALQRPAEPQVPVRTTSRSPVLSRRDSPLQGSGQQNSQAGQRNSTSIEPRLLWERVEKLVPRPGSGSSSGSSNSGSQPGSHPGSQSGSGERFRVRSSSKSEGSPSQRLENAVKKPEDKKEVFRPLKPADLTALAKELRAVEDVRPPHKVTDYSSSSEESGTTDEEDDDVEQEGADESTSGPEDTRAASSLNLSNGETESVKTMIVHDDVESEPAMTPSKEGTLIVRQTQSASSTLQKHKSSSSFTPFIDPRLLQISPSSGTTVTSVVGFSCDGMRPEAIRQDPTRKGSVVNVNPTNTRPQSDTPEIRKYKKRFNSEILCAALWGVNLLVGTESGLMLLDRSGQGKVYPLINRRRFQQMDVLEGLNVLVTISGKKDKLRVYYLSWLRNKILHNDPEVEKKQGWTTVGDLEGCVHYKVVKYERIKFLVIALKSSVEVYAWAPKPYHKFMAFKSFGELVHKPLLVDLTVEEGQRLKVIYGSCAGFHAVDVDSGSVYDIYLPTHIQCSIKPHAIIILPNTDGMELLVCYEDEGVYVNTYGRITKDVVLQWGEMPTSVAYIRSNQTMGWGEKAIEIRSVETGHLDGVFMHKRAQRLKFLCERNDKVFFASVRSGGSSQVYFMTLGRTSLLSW
# [7] = test system: Epidermal growth factor receptor (Homo sapiens), P00533 [G719S]; assay: (§1) Selectivity interaction (KinomeScan (DiscoverX)) EUB0000607a EGFR; conditions: at 10 µM
# [8] = test system: Epidermal growth factor receptor (Homo sapiens), P00533 [UNDEFINED MUTATION]; assay: as §1; conditions: at 10 µM
# [9] = test system: Epidermal growth factor receptor (Homo sapiens), P00533 [L858R,T790M]; assay: as §1; conditions: at 10 µM
# [10] = test system: Epidermal growth factor receptor (Homo sapiens), P00533 [T790M]; assay: as §1; conditions: at 10 µM
# [11] = test system: Epidermal growth factor receptor (Homo sapiens), P00533 [L858R]; assay: as §1; conditions: at 10 µM
# Sequence of Epidermal growth factor receptor (Homo sapiens), P00533 [L858R] (P00533 whole entry L858R): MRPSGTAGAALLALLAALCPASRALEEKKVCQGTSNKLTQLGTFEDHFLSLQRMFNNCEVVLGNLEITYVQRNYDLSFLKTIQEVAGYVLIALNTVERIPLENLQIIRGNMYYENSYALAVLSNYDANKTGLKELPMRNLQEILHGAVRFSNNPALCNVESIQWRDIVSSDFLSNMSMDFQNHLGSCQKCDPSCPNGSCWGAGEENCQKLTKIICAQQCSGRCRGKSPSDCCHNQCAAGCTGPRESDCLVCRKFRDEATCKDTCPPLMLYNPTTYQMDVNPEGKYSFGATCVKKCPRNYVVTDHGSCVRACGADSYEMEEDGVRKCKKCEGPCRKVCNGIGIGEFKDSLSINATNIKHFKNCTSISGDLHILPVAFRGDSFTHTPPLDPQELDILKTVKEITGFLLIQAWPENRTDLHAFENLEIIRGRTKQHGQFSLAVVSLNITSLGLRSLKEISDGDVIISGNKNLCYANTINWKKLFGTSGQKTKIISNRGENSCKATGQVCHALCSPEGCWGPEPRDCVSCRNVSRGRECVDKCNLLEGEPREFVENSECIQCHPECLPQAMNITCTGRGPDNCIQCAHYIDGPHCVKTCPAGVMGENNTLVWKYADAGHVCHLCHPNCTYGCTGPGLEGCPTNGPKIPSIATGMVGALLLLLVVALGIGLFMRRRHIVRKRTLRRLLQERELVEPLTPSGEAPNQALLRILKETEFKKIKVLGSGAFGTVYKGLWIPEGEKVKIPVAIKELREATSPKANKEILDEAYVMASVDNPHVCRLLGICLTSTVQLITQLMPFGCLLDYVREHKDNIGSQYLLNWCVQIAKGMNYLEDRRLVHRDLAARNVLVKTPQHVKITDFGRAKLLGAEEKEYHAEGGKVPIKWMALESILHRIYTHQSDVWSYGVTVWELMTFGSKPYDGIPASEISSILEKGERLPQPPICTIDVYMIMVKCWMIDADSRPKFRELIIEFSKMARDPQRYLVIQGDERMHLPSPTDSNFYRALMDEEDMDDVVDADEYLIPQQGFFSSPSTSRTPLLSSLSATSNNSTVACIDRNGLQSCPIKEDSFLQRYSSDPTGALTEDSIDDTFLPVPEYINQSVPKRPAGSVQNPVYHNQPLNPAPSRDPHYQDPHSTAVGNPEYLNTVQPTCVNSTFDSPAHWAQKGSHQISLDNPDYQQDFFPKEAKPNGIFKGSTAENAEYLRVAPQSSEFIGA
# [12] = target: Epidermal growth factor receptor (Homo sapiens, UniProt P00533); assay: as §1; conditions: at 10 µM
# [13] = test system: Epidermal growth factor receptor (Homo sapiens), P00533 [G719C]; assay: as §1; conditions: at 10 µM
# [14] = test system: Epidermal growth factor receptor (Homo sapiens), P00533 [L861Q]; assay: as §1; conditions: at 10 µM
# [15] = target: Calcium/calmodulin-dependent protein kinase type 1 (Homo sapiens) (UniProt Q14012); assay: Selectivity interaction (ActivX KiNativ screen (kinase selectivity in THP-1 cell lysates)) EUB0000639a CAMK1; format: subcellular; conditions: lysate, at 0.04 µM
# Sequence of Calcium/calmodulin-dependent protein kinase type 1 (Homo sapiens) (Q14012 whole entry, looked up, canonical isoform): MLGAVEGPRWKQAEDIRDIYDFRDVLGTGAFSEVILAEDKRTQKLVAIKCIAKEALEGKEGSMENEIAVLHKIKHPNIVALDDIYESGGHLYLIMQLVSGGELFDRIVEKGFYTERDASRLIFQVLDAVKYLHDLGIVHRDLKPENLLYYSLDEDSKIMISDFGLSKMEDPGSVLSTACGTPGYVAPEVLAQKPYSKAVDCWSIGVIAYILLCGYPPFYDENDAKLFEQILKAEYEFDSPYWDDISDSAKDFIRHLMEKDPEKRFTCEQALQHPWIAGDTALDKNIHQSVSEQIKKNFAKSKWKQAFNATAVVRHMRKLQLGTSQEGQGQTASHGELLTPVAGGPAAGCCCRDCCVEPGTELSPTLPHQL
# [16] = target: Casein kinase I isoform gamma-2 (Homo sapiens) (UniProt P78368); conditions: at 10 µM
# Sequence of Casein kinase I isoform gamma-2 (Homo sapiens) (P78368 whole entry, looked up, canonical isoform): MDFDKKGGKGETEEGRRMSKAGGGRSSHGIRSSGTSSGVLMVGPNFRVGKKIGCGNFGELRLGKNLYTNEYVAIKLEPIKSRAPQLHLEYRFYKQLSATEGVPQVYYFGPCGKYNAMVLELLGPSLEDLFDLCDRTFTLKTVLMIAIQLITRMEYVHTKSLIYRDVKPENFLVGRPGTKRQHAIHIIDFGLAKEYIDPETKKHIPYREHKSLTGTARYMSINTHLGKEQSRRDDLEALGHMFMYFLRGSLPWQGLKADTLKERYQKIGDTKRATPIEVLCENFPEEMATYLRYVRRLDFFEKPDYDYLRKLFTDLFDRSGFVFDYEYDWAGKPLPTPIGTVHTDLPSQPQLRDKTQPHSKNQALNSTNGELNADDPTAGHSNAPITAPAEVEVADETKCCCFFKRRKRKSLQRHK
# [17] = target: T2, Ephrin type-B receptor 3 (Homo sapiens) (UniProt P54753); assay: Selectivity interaction (Ambit KINOMEscan and KiNATiv profiling in Jurkat cells) EUB0000090b EPHB3; format: cell-based; conditions: at 1 µM
# T2 sequence (whole entry): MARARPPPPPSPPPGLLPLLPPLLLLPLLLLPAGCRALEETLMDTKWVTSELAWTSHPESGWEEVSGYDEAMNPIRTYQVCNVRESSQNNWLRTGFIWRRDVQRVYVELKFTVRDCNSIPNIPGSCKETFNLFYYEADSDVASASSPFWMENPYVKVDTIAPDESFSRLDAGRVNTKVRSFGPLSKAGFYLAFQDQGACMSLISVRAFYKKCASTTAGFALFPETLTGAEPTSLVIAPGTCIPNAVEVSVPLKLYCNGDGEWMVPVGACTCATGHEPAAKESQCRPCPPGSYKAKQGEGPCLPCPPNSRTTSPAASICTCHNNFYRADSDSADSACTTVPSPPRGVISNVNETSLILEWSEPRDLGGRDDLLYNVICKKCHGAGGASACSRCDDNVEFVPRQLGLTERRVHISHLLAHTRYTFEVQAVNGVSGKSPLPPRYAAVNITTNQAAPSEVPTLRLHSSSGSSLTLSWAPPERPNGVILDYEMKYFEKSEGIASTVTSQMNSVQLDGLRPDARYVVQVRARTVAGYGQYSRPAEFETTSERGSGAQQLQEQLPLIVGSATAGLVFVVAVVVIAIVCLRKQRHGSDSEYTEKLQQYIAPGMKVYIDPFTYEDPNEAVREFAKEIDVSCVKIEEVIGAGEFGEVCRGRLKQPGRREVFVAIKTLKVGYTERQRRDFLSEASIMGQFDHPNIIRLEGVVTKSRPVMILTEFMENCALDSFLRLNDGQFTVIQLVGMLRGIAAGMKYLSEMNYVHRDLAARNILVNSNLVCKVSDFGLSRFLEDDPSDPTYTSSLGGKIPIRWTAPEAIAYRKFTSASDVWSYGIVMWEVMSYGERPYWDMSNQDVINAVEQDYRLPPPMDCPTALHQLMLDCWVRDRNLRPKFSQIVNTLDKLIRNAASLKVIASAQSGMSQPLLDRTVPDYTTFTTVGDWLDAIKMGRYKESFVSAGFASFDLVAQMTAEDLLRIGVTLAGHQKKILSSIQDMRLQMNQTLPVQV
smiles,measurement,setting,value
COc1cc(N(C)c2ccnc3ccc(C(F)(F)F)cc23)cc(OC)c1OC,% binding,[1],94%
COCC(=O)NC/C=C/c1ccc2ncnc(Nc3ccc(Oc4ccc(C)nc4)c(C)c3)c2c1 [CP-724714],% of control,[2],100%
Nc1cnc(N2CCc3cc(S(=O)(=O)Nc4c(F)cc(Cl)cc4F)cc(N4CCCC4=O)c32)nc1 [TP-020n],% of inhibition,[3],20.2%
Cn1cc(-n2cnc3c(NCc4nc5cc(Cl)c(Cl)cc5[nH]4)nc(N4CCOCC4)nc32)cn1,% of inhibition,[4],4.54%
C=CC(=O)Nc1cccc(C(=O)Nc2ccc(Nc3cc(-c4[nH]c(SC)nc4C)ccn3)cc2)c1,% of control,[5]; at 1 µM,79%
same,% of control,[5]; at 5 µM,67%
CNC(=O)Nc1ccc(-c2nc(N3CC4CCC(C3)O4)c3cnn(C4CCC5(CC4)OCCO5)c3n2)cc1,% of inhibition,[6],10%
same,% of control,[7],69%
same,% of control,[8],38%
same,% of control,[9],100%
same,% of control,[10],68%
same,% of control,[11],53%
same,% of control,[12],62%
same,% of control,[13],80%
same,% of control,[14],64%
CC[C@@H]1[C@H](F)C(=O)N[C@@H]1COc1nccc2cc(C(N)=O)c(OC)cc12 [ZIMLOVISERTIB],% of inhibition,[15],-6.2%
CCN(CC)CCCCNc1ncc2cc(-c3cc(OC)cc(OC)c3)c(NC(=O)NC(C)(C)C)nc2n1,% of control,[16],100%
CN(C)C/C=C/C(=O)Nc1ccc(C(=O)N2CCCC(Nc3ncc(Cl)c(-c4c[nH]c5ccccc45)n3)C2)cc1 (stereo not drawn),% of control,[17],93%
